Measured values from patent US5726195A, “Aminoacyl adenylate mimics as novel antimicrobial and antiparasitic agents” (Cubist Pharmaceuticals, Inc., priority 1996, dated 1998).
≈ marks a conversion by molar mass, not a printed value.

Tests used:
[1] = biological target: E. Coli. IleRS (isoleucyl-tRNA synthetase) (Escherichia coli, UniProt P00956); assay: Inhibition of isoleucyl-tRNA synthetase (aminoacylation of tRNA with [3H]isoleucine); type: biochemical; conditions: E. coli enzyme; irreversible inhibitors: values are 50% of the active enzyme concentration; read-out: IC50 E.Coli. IleRS
Experimental: The extent of aminoacylation of tRNA with isoleucine catalyzed by isoleucyl-tRNA synthetase enzyme was measured by monitoring the incorporation of [3H] isoleucine into trichloroacetic acid-precipitable tRNA in the presence of a compound of Formula I, as compared with activity in the absence of inhibitor. The isoleucyl-tRNA synthetase enzymes are well known in the prior art and can be obtained and purified by known methods (for example see: D. Kern et at., Biochimie, 61, 1257-1272 (1979) and J. Gilbart et al., Antimicrobial Agents and Chemotherapy, 37 (1), 32-38 (1993)).
Isoleucyl-tRNA synthetase enzyme (0.08-2.0 nM, preferably, 0.4 nM) was first pre-incubated at 25° C. with 0.05 mg/ml bovine serum albumin, 10 mM DTT, 2.5% dimethyl sulfoxide, with or without a compound of Formula I, for 20 minutes. At this point a substrate solution (a solution containing the following: ATP, [^3 H]isoleucine, tRNA, HEPES, magnesium chloride, and potassium chloride) was added to give a final concentration of 0.0286 mg/ml bovine serum albumin, 5.7 mM DTT, 4 mM ATP, 5-20 μM [^3 H] isoleucine (1-15 Ci/mmol), 90 μM crude tRNA or 2 μM isoleucine specific tRNA, 1.4% dimethyl sulfoxide, 30 mM HEPES (pH 7.5), 10 mM magnesium chloride, and 50 mM potassium chloride and incubated at 25° C. Aliquots were removed at selected times (e.g. 5, 10, 20 minutes) and applied to 3MM filter paper discs (Whatman) and then dropped into 5% (wt/vol) trichloroacetic acid for >5 minutes. Filters were washed for three 10-minute periods in 5% trichloroacetic acid, rinsed in 95% ethanol and diethyl ether, and radioactivity was measured with Betafluor™ (National Diagnostics) by liquid scintillation counting.
Inhibitor activity is reported in Table II as an IC50 value (inhibitor concentration causing 50% inhibition of enzyme activity) per a known amount of active enzyme. In the case of irreversible inhibitors (1:1 stoichiometry) these values are 50% of the active enzyme concentration. The IC50 (in nM, E. coli) values of representative compounds of the present invention are listed in the second column of Table II.

E. faecalis ATCC 33011 = assay: Whole cell antimicrobial screen, MIC; type: cell-based; conditions: Enterococcus faecalis, ATCC33011
Experimental: (§1) Compounds were tested for antimicrobial activity against a panel of organisms according to standard procedures described by the National Committee for Clinical Laboratory Standards (NCCLS document M7-A3, Vol. 13, No. 25, 1993/NCCLS document M27-P, Vol. 12, No. 25, 1992). Compounds were dissolved in 100% dimethyl sulfoxide and were diluted to the final reaction concentration (0.1 μg/mL-500 μg/mL) in microbial growth media. In al cases the final concentration of dimethyl sulfoxide incubated with cells is less than or equal to 1%. For minimum inhibitory concentration (MIC) calculations, 2-fold dilutions of compounds were added to wells of a microtiter plate containing 5×10^4 bacteria or fungal cells in a final volume of 100 lambda of an appropriate media (Mueller-Hinton Broth; Haemophilus Test Media; Mueller-Hinton Broth+5% Sheep Blood; or […]). Plates were incubated overnight at an appropriate temperature (30° C.-37° C.) and optical densities (measure of cell growth) were measured using a commercial plate reader. The MIC value is defined as the lowest compound concentration inhibiting growth of the test organism.

C. albicans ATCC 10231 = assay: Whole cell antimicrobial screen, MIC; type: cell-based; conditions: Candida albicans, ATCC10231
Experimental: as §1

B. subtilis ATCC 6633 = assay: Whole cell antimicrobial screen, MIC; type: cell-based; conditions: Bacillus subtilis, ATCC6633
Experimental: as §1

S. aureus ATCC 14154 = assay: Whole cell antimicrobial screen, MIC; type: cell-based; conditions: Staphylococcus aureus, ATCC14154
Experimental: as §1

[2] = test system: M. catarrhalis ATCC 25240; assay: Whole cell antimicrobial screen, MIC; type: cell-based; conditions: Moraxella catarrhalis, ATCC25240
Experimental: as §1

K. pneumonia ATCC 4352 = assay: Whole cell antimicrobial screen, MIC; type: cell-based; conditions: Klebsiella pneumoniae, ATCC4352
Experimental: as §1

S. aureus ATCC 6538P = assay: Whole cell antimicrobial screen, MIC; type: cell-based; conditions: Staphylococcus aureus, ATCC6538P
Experimental: as §1

[3] = test system: S. epidermidis ATCC 33501; assay: Whole cell antimicrobial screen, MIC; type: cell-based; conditions: Staphylococcus epidermidis, ATCC33501
Experimental: as §1

E. faecium ATCC 6569 = assay: Whole cell antimicrobial screen, MIC; type: cell-based; conditions: Enterococcus faecium, ATCC6569
Experimental: as §1

[4] = test system: S. saprophyticus ATCC 35552; assay: Whole cell antimicrobial screen, MIC; type: cell-based; conditions: Staphylococcus saprophyticus, ATCC35552
Experimental: as §1

S. pyogenes ATCC 8668 = assay: Whole cell antimicrobial screen, MIC; type: cell-based; conditions: Streptococcus pyogenes, ATCC8668
Experimental: as §1

[5] = test system: multidrug resistant Streptococcus pyogenes (#OTTO 209); assay: Mouse protection test against multidrug resistant Streptococcus pyogenes; type: in vivo, Streptococcus pyogenes; female CD-1 mice; conditions: 10 mg/kg sc (positive control), repeated at 4 hours, 7 days
From the text: The mouse protection test is an industry standard for measuring the efficacy of a test compound in vivo [for examples of this model see J. J. Clement, et al., Antimicrobial Agents and Chemotherapy, 38 (5), 1071-1078, (1994)]. As exemplified below, this test was used to show the in vivo efficacy of the compounds of the present invention against bacteria.
The in vivo activity of compound X against multidrug resistant bacteria was established by infecting female CD-1 mice (Charles River Lab, Massachusettes) weighing 20-24 g intraperitoneally with multidrug resistant Streptococcus pyogenes inoculum. The inoculum was prepared from multidrug resistant Streptococcus pyogenes (resistant to erythromycin, tetracycline, and chloramphenicol, #OTTO 209 obtained from Dr. Pentti Huovinen, National Public Health Institute, Finland) which was cultured in brain heart infusion broth (Baltimore Biological Laboratories, Maryland) at 37° C. for 2 hr, and then 0.1 ml of the culture was diluted with the medium to 1.0 ml for reading its OD at 600 nm (0.12). The turbidity of a 0.5 McFarland standard is equivalent to OD600 0.1, or 10^8 cfu/ml. Then, 4×10^8 cfu of the bacteria (333 μl was added to 20 ml of phosphate buffered saline (Sigma P-0261 ) containing 10 % hog gastric mucin (Sigma M-2378). All animals were injected with 0.5 ml of the inoculum, equivalent to 10^7 cfu/mouse which is the dose causing ~100% death of the animals without treatment.
Compound X (60 mg) was dissolved in 6.0 ml of 0.05M Tris.HCl (pH 8.8) to give a solution of 10 mg/ml. This solution was serially diluted two times with 0.05M Tris.HCl by 5-fold (1.0 ml to 5.0 ml) to give 2 and 0.4 mg/ml solutions. The known antibiotic vancomycin HCl (Sigma V-2002, in normal saline, 1 mg/ml, pH 6.0-7.0) was used as a positive control. All the solutions were filtered with 0.2 μm Nalgene syringe filter. Immediately after the bacterial inoculation, group 1 animals were subcutaneously (sc) injected with 0.05M Tris.HCl (no antibiotic) and groups 2 to 4 were given compound X sc at 4, 20 and 100 mg/kg, respectively. Group 5 animals received vancomycin sc at 10 mg/kg. These injections were repeated once at 4 hours after the inoculation for the respective groups. The injection volume at each time was 10 ml per kilogram of body weight. The 50% protective dose (PD50) is calculated on the basis of the number of mice surviving 7 days after inoculation.

E. Coli. IleRS (isoleucyl-tRNA synthetase), sequence (P00956 whole entry): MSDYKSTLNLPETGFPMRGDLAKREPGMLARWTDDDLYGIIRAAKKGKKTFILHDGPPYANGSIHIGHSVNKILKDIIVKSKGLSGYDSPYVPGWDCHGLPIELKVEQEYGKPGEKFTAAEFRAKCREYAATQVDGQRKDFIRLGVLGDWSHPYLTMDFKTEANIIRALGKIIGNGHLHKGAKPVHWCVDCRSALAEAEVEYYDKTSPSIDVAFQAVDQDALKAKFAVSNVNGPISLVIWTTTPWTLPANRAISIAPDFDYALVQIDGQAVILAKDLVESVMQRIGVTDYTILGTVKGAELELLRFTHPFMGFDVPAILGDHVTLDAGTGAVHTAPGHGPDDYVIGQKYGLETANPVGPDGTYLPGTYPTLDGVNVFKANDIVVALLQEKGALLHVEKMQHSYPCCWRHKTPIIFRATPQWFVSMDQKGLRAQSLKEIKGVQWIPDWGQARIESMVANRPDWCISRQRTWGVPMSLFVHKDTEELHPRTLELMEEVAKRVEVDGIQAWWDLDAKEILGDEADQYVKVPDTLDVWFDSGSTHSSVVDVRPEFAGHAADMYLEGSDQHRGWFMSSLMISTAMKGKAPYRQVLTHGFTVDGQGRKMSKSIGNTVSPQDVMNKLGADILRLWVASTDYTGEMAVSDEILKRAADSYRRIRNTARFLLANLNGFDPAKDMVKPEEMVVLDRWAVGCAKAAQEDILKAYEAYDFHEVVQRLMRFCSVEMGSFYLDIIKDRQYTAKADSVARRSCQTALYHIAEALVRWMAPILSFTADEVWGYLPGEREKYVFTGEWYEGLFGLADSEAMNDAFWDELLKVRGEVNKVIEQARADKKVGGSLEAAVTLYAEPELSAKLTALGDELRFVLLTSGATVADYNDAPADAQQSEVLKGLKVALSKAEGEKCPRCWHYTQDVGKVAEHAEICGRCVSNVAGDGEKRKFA

CC[C@H](C)[C@H](N)C(=O)NS(=O)(=O)OC[C@H]1O[C@@H](CCn2nnc(N3CCN(c4ccccc4)CC3)n2)[C@H](O)[C@@H]1O [XXIV]
IC50 [1]: 1.3 nM
MIC (E. faecalis ATCC 33011): > 400 µg/mL
MIC (C. albicans ATCC 10231): 500 µg/mL (≈ 858 µM)
MIC (B. subtilis ATCC 6633): 400 µg/mL (≈ 686 µM)
MIC (S. aureus ATCC 14154): > 400 µg/mL
MIC [2]: 400 µg/mL (≈ 686 µM)
MIC (K. pneumonia ATCC 4352): 400 µg/mL (≈ 686 µM)
MIC (S. aureus ATCC 6538P): 400 µg/mL (≈ 686 µM)
MIC [3]: 50 µg/mL (≈ 85.8 µM)
MIC (E. faecium ATCC 6569): 400 µg/mL (≈ 686 µM)
MIC [4]: 400 µg/mL (≈ 686 µM)

CC[C@H](C)[C@H](N)C(=O)NS(=O)(=O)OC[C@H]1O[C@@H](CCn2nnc(-c3ccc(Oc4ccc([N+](=O)[O-])s4)cc3)n2)[C@H](O)[C@@H]1O [XXXI]
IC50 [1]: 1.3 nM
MIC (E. faecalis ATCC 33011): > 500 µg/mL
MIC (S. aureus ATCC 14154): 10 µg/mL (≈ 15.6 µM)
MIC (S. pyogenes ATCC 8668): 4 µg/mL (≈ 6.23 µM)
MIC (S. aureus ATCC 6538P): 5 µg/mL (≈ 7.79 µM)
MIC [3]: 5 µg/mL (≈ 7.79 µM)
MIC (E. faecium ATCC 6569): 100 µg/mL (≈ 156 µM)
MIC [4]: 2 µg/mL (≈ 3.12 µM)

CC[C@H](C)[C@H](N)C(=O)NS(=O)(=O)OC[C@H]1O[C@@H](CCn2nnc(-c3ccc(Sc4ccccc4)cc3)n2)[C@H](O)[C@@H]1O [IX]
IC50 [1]: 5 nM
MIC (E. faecalis ATCC 33011): 500 µg/mL (≈ 824 µM)
MIC (C. albicans ATCC 10231): > 500 µg/mL
MIC (S. aureus ATCC 14154): 50 µg/mL (≈ 82.4 µM)
MIC (S. pyogenes ATCC 8668): 0.5 µg/mL (≈ 0.824 µM)
MIC (S. aureus ATCC 6538P): 25 µg/mL (≈ 41.2 µM)
MIC [3]: 5 µg/mL (≈ 8.24 µM)
MIC (E. faecium ATCC 6569): 10 µg/mL (≈ 16.5 µM)
MIC [4]: 25 µg/mL (≈ 41.2 µM)

CN[C@H](CC(C)C)C(=O)N[C@H]1C(=O)N[C@@H](CC(N)=O)C(=O)N[C@H]2C(=O)N[C@H]3C(=O)N[C@H](C(=O)N[C@H](C(=O)O)c4cc(O)cc(O)c4-c4cc3ccc4O)[C@H](O)c3ccc(c(Cl)c3)Oc3cc2cc(c3O[C@@H]2O[C@H](CO)[C@@H](O)[C@H](O)[C@H]2O[C@H]2C[C@](C)(N)[C@H](O)[C@H](C)O2)Oc2ccc(cc2Cl)[C@H]1O [Vancomycin, vancomycin, reference compound]
Protective % [5]: 100%
Number of Alive ([5]; of 5 mice): 5
